Source: patent US12649723B2, “Carbonohydrazonoyl dicyanide compounds comprising 2 or more aryl or heteroaryl connected via linker and use thereof” (KOREA INSTITUTE OF SCIENCE AND TECHNOLOGY, priority 2020, dated 2026)

Legend:
Tau-BiFC cells = experiment: Cell viability (cytotoxicity) in tau-BiFC cells, count of stained nuclei; assay type: cell-based; conditions: compound 10 μM; Forskolin-only group = 100% cell viability
Protocol: (§1) In order to select novel tau protein aggregation-inhibiting substances, tau-BiFC cell model, in which formation of tau oligomers in living cells is easily observed, was used. Tau-BiFC cells were aliquoted into a 384-well plate. On the next day, the cells were treated with each of the compounds prepared according to Examples 1 to 175 at concentrations of 1 μM, 3 μM, and 10 μM, together with Forskolin (at a treatment concentration of 30 μM), which is a compound inducing tau protein aggregation by activating tau […] PKA. After 48 hours, nuclei in the cells were stained using Hoechst (at a treatment concentration of 2 μg/mL), and BiFC fluorescence intensity was automatically measured using Operetta (PerkinElmer) to count stained nuclei in each well out of the entire well plate. The group treated only with Forskolin, which induces tau protein aggregation, was set to a reference point of a 100% tau protein-aggregated state, and the effects of the compounds were confirmed using the equation “BiFC fluorescence intensity due to compound synthesized according to embodiment of present invention/(fluorescence intensity of control group treated only with Forskolin inducing tau protein aggregation−fluorescence intensity of untreated control group)×100”. Furthermore, the degree of cytotoxicity induced by the newly synthesized compound was also measured based on the 100% cell viability of the group treated only with Forskolin as a reference, and the cytotoxicity value of each compound was calculated using the equation “(number of stained nuclei in group treated with compound/number of stained nuclei in group treated with Forskolin)×100”. Based on the treatment results, substances inhibiting intracellular tau protein aggregation were selected from a series of candidate groups showing a tau protein aggregation inhibition rate of 70% or more and cell viability of 100% at a compound treatment concentration of 10 μM or more.
(§2) In order to evaluate dose-dependent tau protein aggregation inhibition effects of the compounds selected according to Experimental Example 1 on tau protein aggregation, tau-BiFC cells were treated with the selected compounds at concentrations of 0.03 μM, […], 0.3 μM, 1 μM, 3 μM, 10 μM, and 30 μM, respectively, together with Forskolin (at a treatment concentration of 30 μM), which is a tau protein aggregation inducing substance. After 48 hours, tau protein aggregation reaction and degrees of cytotoxicity were analyzed by observing images of the cells. IC50 and toxicity of the compounds were analyzed by way of nonlinear regression analysis of prism software (Graph Pad).

tau protein = molecular target: T1, tau protein (Homo sapiens, UniProt P10636); experiment: Tau-BiFC cell model: inhibition of tau protein aggregation; assay type: cell-based; conditions: for remaining activity at 10 µM: 48 h, compound 10 μM, BiFC fluorescence, Forskolin-only group = 100% tau protein-aggregated state, read-out: Response (% @10 μM); for IC50: Tau BiFC in cells, with Forskolin 30 μM, 48 hours
T1 construct: fused on or other part: Split fluorescent-protein halves for BiFC are fused to tau; In the published tau-BiFC line these are Venus VN173 and VC155
Protocol: as §1, §2

T1 sequence (P10636 2-441 isoform P10636-8 limits assumed): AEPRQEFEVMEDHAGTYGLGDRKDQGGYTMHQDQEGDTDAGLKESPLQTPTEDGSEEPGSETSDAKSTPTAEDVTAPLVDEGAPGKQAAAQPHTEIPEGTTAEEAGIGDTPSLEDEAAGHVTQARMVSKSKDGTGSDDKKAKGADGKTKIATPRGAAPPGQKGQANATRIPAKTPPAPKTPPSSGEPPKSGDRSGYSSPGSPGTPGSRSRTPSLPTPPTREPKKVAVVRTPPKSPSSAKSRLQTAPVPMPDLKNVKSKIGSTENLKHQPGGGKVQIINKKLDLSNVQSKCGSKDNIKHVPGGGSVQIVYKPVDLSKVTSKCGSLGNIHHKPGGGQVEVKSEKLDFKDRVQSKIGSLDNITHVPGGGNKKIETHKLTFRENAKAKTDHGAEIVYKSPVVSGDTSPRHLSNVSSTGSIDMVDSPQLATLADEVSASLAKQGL

Structure (SMILES)	Cell viability (% @10 μM) (Tau-BiFC cells) [%]	remaining activity at 10 µM (tau protein) [%]	IC50 (tau protein) [nM]
Cc1cnc(C(=O)Nc2ccc(NN=C(C#N)C#N)cc2)cn1 [Compound 2, (4-(5-methylpyrazine-2-carboxamido)phenyl)carbonohydrazonoyl dicyanide]	71.5	0	1400
Cc1cnc(C(=O)Nc2ccc(NN=C(C#N)C#N)c(Cl)c2)cn1 [Compound 5, (2-chloro-4-(5-methylpyrazine-2-carboxamido)phenyl)carbonohydrazonoyl dicyanide]	61.2	14.5	
Cc1cnc(C(=O)Nc2ccc(NN=C(C#N)C#N)cc2F)cn1 [Compound 7, (3-fluoro-4-(5-methylpyrazine-2-carboxamido)phenyl)carbonohydrazonoyl dicyanide]	30.6	0	
Cc1cnc(C(=O)Nc2ccc(NN=C(C#N)C#N)cc2C)cn1 [Compound 8, (3-methyl-4-(5-methylpyrazine-2-carboxamido)phenyl)carbonohydrazonoyl dicyanide]	88	0	40
COc1cc(NN=C(C#N)C#N)ccc1NC(=O)c1cnc(C)cn1 [Compound 10, (3-methoxy-4-(5-methylpyrazine-2-carboxamido)phenyl)carbonohydrazonoyl dicyanide]	21.7	0	
Cc1cnc(C(=O)Nc2ccc(NN=C(C#N)C#N)cc2Cl)cn1 [Compound 11, (3-chloro-4-(5-methylpyrazine-2-carboxamido)phenyl)carbonohydrazonoyl dicyanide]	82.5	0	110
Cc1cnc(C(=O)Nc2ncc(NN=C(C#N)C#N)cc2C)cn1 [Compound 12, (5-methyl-6-(5-methylpyrazine-2-carboxamido)pyridin-3-yl)carbonohydrazonoyl dicyanide]	122.1	17.9	640
Cc1cnc(C(=O)Nc2cc(C)c(NN=C(C#N)C#N)cn2)cn1 [Compound 13, (4-methyl-6-(5-methylpyrazine-2-carboxamido)pyridin-3-yl)carbonohydrazonoyl dicyanide]	110	30	550
Cc1cnc(C(=O)Nc2ccc(NN=C(C#N)C#N)nc2)cn1 [Compound 14, (5-(5-methylpyrazine-2-carboxamido)pyridin-2-yl)carbonohydrazonoyl dicyanide]	102	147	
N#CC(C#N)=NNc1ccc(NC(=O)c2ccccc2)nc1 [Compound 15, (6-benzamidopyridin-3-yl)carbonohydrazonoyl dicyanide]	79.9	0	90
N#CC(C#N)=NNc1ccc(NC(=O)c2ccccc2F)nc1 [Compound 17, (6-(2-fluorobenzamido)pyridin-3-yl)carbonohydrazonoyl dicyanide]	102.7	0	310
N#CC(C#N)=NNc1ccc(NC(=O)c2cccc(F)c2)nc1 [Compound 18, (6-(3-fluorobenzamido)pyridin-3-yl)carbonohydrazonoyl dicyanide]	113	0	660
Cc1cc(C(=O)Nc2ccc(NN=C(C#N)C#N)cn2)ccc1F [Compound 21, (6-(4-fluoro-3-methylbenzamido)pyridin-3-yl)carbonohydrazonoyl dicyanide]	104.3	0	750
Cc1ccc(C(=O)Nc2ccc(NN=C(C#N)C#N)cn2)cc1F [Compound 22, (6-(3-fluoro-4-methylbenzamido)pyridin-3-yl)carbonohydrazonoyl dicyanide]	105.8	0	320
Cc1cccc(C(=O)Nc2ccc(NN=C(C#N)C#N)cn2)c1 [Compound 24, (6-(3-methylbenzamido)pyridin-3-yl)carbonohydrazonoyl dicyanide]	103.9	0	< 300
Cc1ccccc1C(=O)Nc1ccc(NN=C(C#N)C#N)cn1 [Compound 25, (6-(2-methylbenzamido)pyridin-3-yl)carbonohydrazonoyl dicyanide]	122.4	0	390
N#CC(C#N)=NNc1ccc(NC(=O)c2ccccc2C(F)(F)F)nc1 [Compound 28, (6-(2-(trifluoromethyl)benzamido)pyridin-3-yl)carbonohydrazonoyl dicyanide]	125.8	0	540
N#CC(C#N)=NNc1ccc(NC(=O)c2ncccn2)nc1 [Compound 29, (6-(pyrimidine-2-carboxamido)pyridin-3-yl)carbonohydrazonoyl dicyanide]	139.9	0	1040
N#CC(C#N)=NNc1ccc(NC(=O)c2cnc3ccccc3n2)nc1 [Compound 32, (6-(quinoxaline-2-carboxamido)pyridin-3-yl)carbonohydrazonoyl dicyanide]	145.3	0	310
Cc1cnc(C(=O)Nc2nc3ncc(NN=C(C#N)C#N)cc3s2)cn1 [Compound 33, (2-(5-methylpyrazine-2-carboxamido)thiazolo[4,5-b]pyridin-6-yl)carbonohydrazonoyl dicyanide]	125	63.9	
Cc1ccc(NC(=O)c2ccc(NN=C(C#N)C#N)cn2)cc1 [Compound 34, (6-(p-tolylcarbamoyl)pyridin-3-yl)carbonohydrazonoyl dicyanide]	88.1	76	9000
COc1ccc(NC(=O)c2ccc(NN=C(C#N)C#N)cn2)cc1 [Compound 35, (6-(4-methoxyphenylcarbamoyl)pyridin-3-yl)carbonohydrazonoyl dicyanide]	97.9	34.2	
Cc1cnc(NC(=O)c2ccc(NN=C(C#N)C#N)cn2)cn1 [Compound 36, (6-(5-methylpyrazin-2-ylcarbamoyl)pyridin-3-yl)carbonohydrazonoyl dicyanide]	86.9	35.9	
N#CC(C#N)=NNc1ccc(C(=O)Nc2ccc(Cl)cc2)nc1 [Compound 37, (6-(4-chlorophenylcarbamoyl)pyridin-3-yl)carbonohydrazonoyl dicyanide]	117.8	62.7	
Cc1cncc(NC(=O)c2ccc(NN=C(C#N)C#N)cn2)c1 [Compound 39, (6-(5-methylpyridin-3-ylcarbamoyl)pyridin-3-yl)carbonohydrazonoyl dicyanide]	131.1	0	630
N#CC(C#N)=NNc1ccc(C(=O)Nc2cccnc2)nc1 [Compound 40, (6-(pyridin-3-ylcarbamoyl)pyridin-3-yl)carbonohydrazonoyl dicyanide]	130.7	7.9	
Cc1cncc(NC(=O)c2ccc(NN=C(C#N)C#N)cn2)n1 [Compound 41, (6-(6-methylpyrazin-2-ylcarbamoyl)pyridin-3-yl)carbonohydrazonoyl dicyanide]	115.2	0	
N#CC(C#N)=NNc1ccc(C(=O)Nc2cncnc2)nc1 [Compound 42, (6-(pyrimidin-5-ylcarbamoyl)pyridin-3-yl)carbonohydrazonoyl dicyanide]	123.1	0	
N#CC(C#N)=NNc1ccc(C(=O)Nc2ncccn2)nc1 [Compound 43, (6-(pyrimidin-2-ylcarbamoyl)pyridin-3-yl)carbonohydrazonoyl dicyanide]	168.6	3	
COc1ccc(NC(=O)c2ccc(NN=C(C#N)C#N)cc2)cc1 [Compound 44, (4-(4-methoxyphenylcarbamoyl)phenyl)carbonohydrazonoyl dicyanide]	70.4	0	
